Test results reported in patent US6803499B1, “Methods and compositions for the production of stably transformed, fertile monocot plants and cells thereof” (DeKalb Genetics Corporation, priority 1989, dated 2004).

System: SC82 cells
Test: Bialaphos selection of SC82 suspension culture cells on filters
Assay type: cell-based, Zea mays
Description: The suspension culture (designated SC82) used in the initial experiments (see Example 8) was derived from embryogenic Type-II callus of A188×B73. Following bombardment (see Example 8), cells on filters were resuspended in nonselective liquid medium, cultured for 1 to 2 weeks and transferred to filters overlaying solid medium containing 1 or 3 mg/l bialaphos. The degree of inhibition of tissue growth during selection was dependent upon the density of the cells on the filter and on the concentration of bialaphos used.
Using either selection protocol (1 or 3 mg/l bialaphos), resistant cell colonies emerged on the selection plates of SC82 bombarded with pDPG165 approximately 6 to 7 weeks after bombardment (FIG. 2A). Bialaphos-resistant calli were maintained and expanded on selection medium. Much of this tissue was embryogenic (FIG. 2B). […] These were controls which confirm the prediction that cells without the bar gene are not resistant to bialaphos.

C[C@H](NC(=O)[C@H](C)NC(=O)[C@@H](N)CCP(C)(=O)O)C(=O)O [bialaphos]
growth of cells cultured on bialaphos (SC82 cells, 0.5 PCV/filter, 1 mg/l bialaphos): 30-50 % of nonselected growth | growth of cells on the original selection filter (SC82 cells, 0.5 PCV/filter, 3 mg/l bialaphos): ~10 % of nonselected growth | colony growth on selection plates (cells from untransformed suspension cultures, 1 or 3 mg/l bialaphos): No colony growth
